Legend:
P2X mRNA = conditions: rat, RP2 mRNA; cited from earlier work
PC12 P2X receptor = target: T1, PC12 P2X receptor (Rattus norvegicus, UniProt P49653); test: functional properties of cloned P2X receptors (electrical recordings): PC12; assay type: cell-based
T1 construct: host or cells: HEK293 cells (oocytes are also named for the functional characterisation of clone 3)
T1 sequence (P49653 1-472): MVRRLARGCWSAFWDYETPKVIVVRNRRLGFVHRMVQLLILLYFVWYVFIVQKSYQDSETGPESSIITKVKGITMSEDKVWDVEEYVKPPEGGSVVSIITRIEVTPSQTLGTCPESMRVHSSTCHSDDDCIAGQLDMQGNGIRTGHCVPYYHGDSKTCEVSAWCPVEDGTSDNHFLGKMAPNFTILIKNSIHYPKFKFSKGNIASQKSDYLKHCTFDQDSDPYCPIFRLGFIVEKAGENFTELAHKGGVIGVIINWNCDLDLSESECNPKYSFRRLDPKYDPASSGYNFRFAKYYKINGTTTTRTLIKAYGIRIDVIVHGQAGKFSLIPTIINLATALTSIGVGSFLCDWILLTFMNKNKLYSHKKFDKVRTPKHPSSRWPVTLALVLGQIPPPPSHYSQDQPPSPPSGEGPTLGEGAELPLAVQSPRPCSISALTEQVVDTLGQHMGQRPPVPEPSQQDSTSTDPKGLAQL
Experimental: (§1) HEK 293 cells were transfected by the lipofectin method (Felgner et al., Proc. Nat'l. Acad. Sci. USA 84 7413-7417 (1987)) with P2X -plasmid. DNA concentration used was 1 mg/2 ml medium placed into a 35 mm petri dish containing four 11 mm diameter coverslips on which HEK cells were placed at 10,000 cells per coverslip. […] Currents were recorded from HEK 293 cells using whole-cell recording methods and the AXOPATCH™ 200 amplifier (Axon Instruments); patch pipettes (5 M.OMEGA.) contained (mM) Cs or K aspartate 140, NaCl 5, EGTA 11, HEPES 5. The external solution was (mM) NaCl 150, KCl2, CaCl2 2, MgCl2 1, HEPES 5 and glucose 11; the pH and osmolarity of both solutions were maintained at 7.3 and 305 mosmol/l respectively. All recordings performed at room temperature. Data acquisition and analysis were performed using pCLAMP™ and AXOGRAPH™ software (Axon Instruments). […] The pH and osmolarity of the solutions were 7.4 and 295 mosmol/l respectively. For single channel measurements, a […]™ 500 amplifier and outside-out recording methods were used (Adelman et al., Neuron 9 209-216 (1992)). Wax-coated patch pipettes (5-10 M.OMEGA.) contained (mM) K-gluconate 115, HEPES 5, BAPTA 5 and MgCl2 0.5, external solution was 96 mM NaCl, 2 mM KCl, 1.8 mM CaCl2, 1 mM MgCl2, 5 mM Hepes pH 7.6, and 5 mM sodium pyruvate.
(§2) The functional characterisation of the clone illustrated in FIG. 2 (referred to herein as clone 3) was carried out by electrical recordings from transfected HEK293 cells and from oocytes injected with the in vitro transcribed RNA, as described in Example 4 for the rat vas deferens P2X receptor. Table A summarizes the main properties of clone 3 as compared to those of rat vas/human bladder cDNA clone, and the PC12 cDNA clone (provided by David Julius and Tony Brake of the University of California at San Francisco).

[1] = target: T2, rat superior cervical ganglion P2X receptor (clone 3) (Rattus norvegicus, UniProt P51577); test: functional properties of cloned P2X receptors (electrical recordings): clone 3; assay type: cell-based
T2 construct: The insert appeared to be a full length cDNA; expressed in transfected cells; host or cells: HEK293 cells transfected with pcDNA3 construct p464 (also oocytes injected with in vitro transcribed RNA)
T2 sequence (P51577 1-388): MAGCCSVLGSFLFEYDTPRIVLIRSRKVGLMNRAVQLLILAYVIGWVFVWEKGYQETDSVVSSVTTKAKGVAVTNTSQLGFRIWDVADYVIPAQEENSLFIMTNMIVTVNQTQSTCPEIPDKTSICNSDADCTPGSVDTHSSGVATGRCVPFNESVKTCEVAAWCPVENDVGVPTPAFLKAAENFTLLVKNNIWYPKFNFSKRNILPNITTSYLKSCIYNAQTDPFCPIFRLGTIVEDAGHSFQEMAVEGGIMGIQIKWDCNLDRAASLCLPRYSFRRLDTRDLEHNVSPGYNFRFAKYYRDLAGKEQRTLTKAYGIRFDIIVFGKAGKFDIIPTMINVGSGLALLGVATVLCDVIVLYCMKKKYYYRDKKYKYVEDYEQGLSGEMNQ
Experimental: as §1, §2

P2-purinoceptor = conditions: reported previously for suramin; cited from earlier work
mouse vas deferens = conditions: cited from earlier work
[2] = target: T3, rat vas deferens P2X receptor (Rattus norvegicus, UniProt P47824); test: radioligand binding in CHO cells stably transfected with rat vas deferens P2X receptor
T3 construct: cRNA in Xenopus oocytes; stably transfected CHO cells
T3 sequence (P47824 1-399): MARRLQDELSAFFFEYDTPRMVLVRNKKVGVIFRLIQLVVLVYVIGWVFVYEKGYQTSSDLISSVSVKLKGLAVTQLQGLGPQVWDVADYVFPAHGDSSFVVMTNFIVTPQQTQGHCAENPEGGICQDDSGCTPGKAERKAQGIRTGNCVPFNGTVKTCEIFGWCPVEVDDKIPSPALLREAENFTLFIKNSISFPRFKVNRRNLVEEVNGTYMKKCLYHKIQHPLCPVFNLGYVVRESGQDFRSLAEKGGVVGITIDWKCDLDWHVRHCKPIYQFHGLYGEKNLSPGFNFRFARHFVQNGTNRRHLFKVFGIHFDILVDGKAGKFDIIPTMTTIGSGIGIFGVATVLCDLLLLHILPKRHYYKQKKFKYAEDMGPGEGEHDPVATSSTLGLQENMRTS
From the text: CHO cells were stably transfected by a method used for other ion channels (Claudio, Meth. Enzymol. 207 391-408 (1992)). Transfection was confirmed by a) electro-physiological recording and b) radioligand binding. […] [^3 H]αβmethyleneATP binding was more than 600 cpm per million transfected cells with less than 80 cpm nonspecific binding.

In the case of C[C@@H]1C[C@H]2[C@@H]3CCC4=CC(=O)C=C[C@]4(C)[C@@]3(F)[C@@H](O)C[C@]2(C)[C@@]1(O)C(=O)CO [dexamethasone], the “induction of P2X mRNA in immature thymocytes” value (P2X mRNA) is listed as “can be induced in immature thymocytes by dexamethasone”.

For Cc1ccc(C(=O)Nc2ccc(S(=O)(=O)O)c3cc(S(=O)(=O)O)cc(S(=O)(=O)O)c23)cc1NC(=O)c1cccc(NC(=O)Nc2cccc(C(=O)Nc3cc(C(=O)Nc4ccc(S(=O)(=O)O)c5cc(S(=O)(=O)O)cc(S(=O)(=O)O)c45)ccc3C)c2)c1 [suramin], the IC50 (PC12 P2X receptor) was 6 µM, the “antagonist profile, clone 3 (block)” value ([1]; Table A, concentration not given) was < 40% and the “sensitivity of ATP-activated currents to antagonism, compared with rat vas deferens/human bladder and PC12 forms” value ([1]; clone 3 (FIG. 15)) was “much less sensitive to antagonism”. The pA2 (P2-purinoceptor) was 5.9 and the pKB (mouse vas deferens) was 5.2.

In the case of [^3 H]αβmethyleneATP, the binding [2] is reported as “more than 600 cpm per million transfected cells” and the nonspecific binding [2] is reported as “less than 80 cpm”.

— patent US5985603A, “P2x receptor DNA and protein sequence” (Glaxo Group Limited, priority 1994, dated 1999)
